Results from ChEMBL document CHEMBL3046722, “QSAR study of 1,3dioxo-4-methyl-2,3-dihydro-1h-pyrrolo[3,4-c]quinolines as caspase-3 inhibitors” (Med Chem Res, 2008).

Experiment: Octanol-water partition coefficient, log P of the compound
Assay type: physicochemical

logP | SMILES
1.73 | COC(=O)CN1C(=O)c2c(C)nc3ccccc3c2C1=O
1.87 | COC(=O)CN1C(=O)c2c(C)nc3ccc(F)cc3c2C1=O
2.53 | COC(=O)CN1C(=O)c2c(C)nc3ccc(Br)cc3c2C1=O
0.404 | COC(=O)CN1C(=O)c2c(C)nc3ccc(S(=O)(=O)N4CCOCC4)cc3c2C1=O
1.92 | COC(=O)CCN1C(=O)c2c(C)nc3ccccc3c2C1=O
2.06 | COC(=O)CCN1C(=O)c2c(C)nc3ccc(F)cc3c2C1=O
2.71 | COC(=O)CCN1C(=O)c2c(C)nc3ccc(Br)cc3c2C1=O
0.585 | COC(=O)CCN1C(=O)c2c(C)nc3ccc(S(=O)(=O)N4CCOCC4)cc3c2C1=O
3.21 | Cc1ccccc1N1C(=O)c2c(C)nc3ccc(S(=O)(=O)N4CCOCC4)cc3c2C1=O
2.24 | COCCNS(=O)(=O)c1ccc2nc(C)c3c(c2c1)C(=O)N(c1c(C)nn(C)c1C)C3=O
2.31 | Cc1nc2ccc(S(=O)(=O)N3CCOCC3)cc2c2c1C(=O)N(c1c(C)nn(C)c1C)C2=O
0.584 | Cc1nc2ccc(S(=O)(=O)N3CCOCC3)cc2c2c1C(=O)NC2=O
0.83 | Cc1nc2ccc(S(=O)(=O)N3CCOCC3)cc2c2c1C(=O)N(C)C2=O

Further lines, the compound ahead of its results:

SMILES | logP
Cc1ccccc1N1C(=O)c2c(C)nc3ccccc3c2C1=O | 4.54
Cc1ccccc1N1C(=O)c2c(C)nc3ccc(Br)cc3c2C1=O | 5.33
Cc1nc2ccc(Br)cc2c2c1C(=O)N(c1c(C)nn(C)c1C)C2=O | 4.43
Cc1nc2ccc(S(N)(=O)=O)cc2c2c1C(=O)N(c1c(C)nn(C)c1C)C2=O | 2.16
Cc1nc2ccc(S(=O)(=O)NCCO)cc2c2c1C(=O)N(c1c(C)nn(C)c1C)C2=O | 1.96
COC(=O)C(Cc1ccccc1)NS(=O)(=O)c1ccc2nc(C)c3c(c2c1)C(=O)N(c1c(C)nn(C)c1C)C3=O (centres undefined) | 4.2
Cc1nc2ccc(S(=O)(=O)N3CCCC3COc3ccccc3)cc2c2c1C(=O)N(c1c(C)nn(C)c1C)C2=O (centres undefined) | 4.67
Cc1nc2ccc(C#N)cc2c2c1C(=O)N(c1c(C)nn(C)c1C)C2=O | 3.68
Cc1nc2ccc(F)cc2c2c1C(=O)NC2=O | 2.05
Cc1nc2ccc(Br)cc2c2c1C(=O)NC2=O | 2.71
Cc1nc2ccc(Br)cc2c2c1C(=O)N(C)C2=O | 2.95
